A short description of data set [1]: Mouse in vivo pharmacokinetic studies. On the set-up: species or system C57BL/6 male mice. The procedure:
Adult C57BL/6 male mice (2–4 mo old, body weight ranging from 20 to 25 g, Charles River Laboratories) were maintained under controlled temperature (23 ± 1°C) and lighting (lights on 6:00 AM–6:00 PM) with food and water provided ad libitum. Pharmacokinetic studies were performed either via intravenous bolus infusion or through oral gavage. Mice were administered each compound intravenously by tail vein injection (1 mg/kg) or orally through gavage (5 mg/kg). Serial blood samples were collected at 5, 15, and 30 min and 1, 2, 4, 8, and 24 h after intravenous administration, and at 15, 30 min, and 1, 2, 4, 8, and 24 h after oral gavage administration. All blood samples were centrifuged at 1,500 g for 5 min. Pharmacokinetic study procedures were approved by Temple University’s Institutional Animal Care and Usage Committee and were in accordance with National Institutes of Health (NIH) guidelines. For all in vivo efficacy studies, experiments were approved by the animal ethics committee of McMaster University and conducted under Canadian guidelines for animal research.
Plasma concentrations were determined using an LC-MS/MS method. Briefly, 100-µL acetonitrile with an internal standard solution (Diltiazem, 0.1 μg/mL) was added to 50-µL plasma or tissue homogenate. After being vortexed for 1 min, the mixture was centrifuged at 3,000 g for 5 min. LC-MS/MS analysis was carried out using a high-performance liquid chromatography system consisting of an Agilent 1100 system interfaced to an API4000 SCIEX triple-quadrupole tandem mass spectrometer (Applied Biosystems/MDS Sciex, Foster City, CA). MC-170073, MC-230078, MC-230079, and the internal standard were separated by using a Phenomenex (Torrance, CA) C18 column (2.0 × 50 mm). The mobile phase consisted of solvent A (0.1% formic acid in water) and solvent B (0.1% formic acid in acetonitrile). A linear gradient of solvent B from 5 to 95% was used. The detection and quantification of analytes were performed with the m/z transition 347/191 for MC-170073, MC-230078, and MC-230079, and m/z 415/178 for diltiazem.

Data set [2] deals with 2,4,6-trinitrobenzenesulfonic acid (TNBS)-induced colitis. Also on record: method as in PMID 23554310, PMID 27047383. As to conditions: cited from earlier work.
In data set [3] the test system is DSS-induced colitis. Also on record: method as in PMID 23554310. Particulars: acute DSS-induced colitis, vs controls; cited from earlier work.
In data set [4] the test system is naive CD4+ T cells expressing 5-HT7 receptors. On the set-up: method as in PMID 17158224. As to conditions: ex vivo; cited from earlier work.
The test system of data set [5] is DSS exposure at 4% wt/vol. On the set-up: method as in PMID 25072499. As to conditions: DSS 4% wt/vol; untreated animals 33%; cited from earlier work.
The subject of data set [6] is colitis induced by DSS and TNBS. As to conditions: 5-HT4 receptor agonist; cited from earlier work.
Where [7] appears, read: male, C57BL/6, plasma, IV, 1 mg/kg.
The mark [8] stands for this setting: male, C57BL/6, plasma, oral gavage, 5 mg/kg.

A value given as a limit tells only on which side of the number the result lay.

Broadly, the bioavailability is the share of a dose that reaches the circulation, judged against a reference dose that is usually intravenous. One may read the AUC as concentration integrated over time. The low end stands for less exposure, the high end for more exposure. What is called Cmax is the highest concentration seen after dosing. Usually Tmax stands for the time at which the peak concentration occurs. What is called clearance is a measure of how efficiently the substance is removed, as volume per time. A lower clearance goes with inefficient removal. A word on the half-life: it is the time needed for the level to fall by half in the phase considered. A high value points to slow loss.

Take `CCC1(CC)C[C@H](CCN2CCN(c3ccc(O)cc3)CC2)OC1=O` [MC-230079]: the bioavailability in data set [1] (male, C57BL/6, mouse, plasma, oral, 5 mg/kg, 5 mg/kg oral vs 1 mg/kg IV, read-out: %F (oral bioavailability)) is 10.8%. For the same compound, in data set [1] (setting [7]), the AUC was determined as 97 ng·h/mL, the maximum concentration (Cmax) amounted to 148 ng/mL, the Tmax came to 10 min and the clearance was 4.2 mL/min. In addition, the half-life in data set [1] (setting [7]) is 20.1 min. Moreover, in data set [1] (setting [8]), the AUC stood at 52.5 ng·h/mL, the highest level (Cmax) was 57 ng/mL, the Tmax was found to be 30 min and the half-life is 34.9 min. In addition, the CL in data set [1] (oral gavage, 5 mg/kg) was 2.07 L/h.
Turning to `CC1CCN(CC[C@H]2CCCN2S(=O)(=O)c2cccc(O)c2)CC1` [SB-269970, (R)-3-(2-(2-(4-methylpiperidin-1-yl)-ethyl)pyrrolidine-1-sulfonyl)phenol], the “effect on TNBS-induced colitis” value in data set [2] is given as “only a minor impact”. For the same compound, in data set [3], the “severity of colitis and production of proinflammatory cytokines” value is “significantly reduced”. For the same compound, in data set [4], the “rapid T cell responses upon 5-HT exposure” value was “abrogated”. Also, the mortality rate in data set [5] is listed as > 60%.
For the compound `[H]/N=C(/NCCCCC)N/N=C/c1c[nH]c2ccc(OC)cc12` [tegaserod], the “effect on development of colitis” value in data set [6] is reported as “protective actions”.

The values above are taken from paper PMC11550998, “Novel 5-HT7 receptor antagonists modulate intestinal immune responses and reduce severity of colitis” (American Journal of Physiology - Gastrointestinal and Liver …, 2024).
